# System: vetch aphid (Megoura viciae)
# Experiment: Vetch aphid (Megoura viciae) broad bean leaf disk microtiter test
# Type: in vivo
# Conditions: 1415 ppm; broad bean leaf disks; 5 days
# Description: B.2 Vetch Aphid (Megoura viciae)
# For evaluating control of vetch aphid (Megoura viciae) through contact or systemic means the test unit consists of 24-well-microtiter plates containing broad bean leaf disks.
# The compounds are formulated using a solution containing 75% v/v water and 25% v/v DMSO. Different concentrations of formulated compounds are sprayed onto the leaf disks at 2.5 μl, using a custom built micro atomizer, at two replications.
# After application, the leaf disks are air-dried and 5-8 adult aphids placed on the leaf disks inside the microtiter plate wells. The aphids are then allowed to suck on the treated leaf disks and incubated at about […] and about 50±5% relative humidity for 5 days. Aphid mortality and fecundity is then visually assessed.
row,SMILES,mortality in comparison with untreated controls
1,CCS(CC1CC1)=NC(=O)c1cc(Cl)cc(C)c1N (centres unmarked) [S.9],over 75%

# System: not listed separately
# Experiment: log P determination via capillary electrophorese (cePro9600)
# Type: physicochemical
# Conditions: pH = 10.0
# Description: log P determinations were performed via capillary electrophorese on a cePro9600™ from CombiSep.
row,SMILES,logP
1,Cc1cc(I)cc(C(=O)N=S2CCCC2)c1NC(=O)c1cc(C(F)(F)F)nn1-c1ncccc1Cl [compound 137],logP: 3.1 [pH = 10.0];
2,Cc1cc(I)cc(C(=O)N=S2CCSC2)c1NC(=O)c1cc(C(F)(F)F)nn1-c1ncccc1Cl (centres unmarked) [compound 129],logP: 3.5 [pH = 10.0];
3,Cc1cc(Cl)cc(C(=O)N=S(C)C)c1NC(=O)c1cc(C(F)(F)F)nn1-c1ncccc1Cl [compound 110],logP: 2.9 [pH = 10.0];
4,CCCCCS(CCO)=NC(=O)c1cc(Cl)cc(C)c1NC(=O)c1cc(C(F)(F)F)nn1-c1ncccc1Cl (centres unmarked) [compound 48],logP: 3.6 [pH = 10.0];
5,CCCS(C)=NC(=O)c1cc(I)cc(C)c1NC(=O)c1cc(Br)nn1-c1ncccc1Cl (racemic) [compound 272],logP: 3.2 [pH = 10.0]
6,C#CCOc1cc(C(=O)Nc2c(C)cc(I)cc2C(=O)N=S(C(C)C)C(C)C)n(-c2ncccc2Cl)n1 [compound 196],logP: 3.1 [pH = 10.0]
7,Cc1cc(Cl)cc(C(=O)N=S(C(C)C)C(C)C)c1NC(=O)c1cc(C(F)(F)F)nn1-c1ncccc1Cl [compound 24],logP: 3.3 [pH = 10.0].
8,C#CCOc1cc(C(=O)Nc2c(C)cc(Cl)cc2C(=O)N=S2CCCCC2)n(-c2ncccc2Cl)n1 [compound 209],logP: 2.8 [pH = 10.0]
9,CCCCCS(CCO)=NC(=O)c1cccc(C)c1NC(=O)c1cc(C(F)(F)F)nn1-c1ncccc1Cl (centres unmarked) [compound 213],logP: 3.4 [pH = 10.0];
10,CCCCCS(CCO)=NC(=O)c1cccc(C)c1NC(=O)c1cc(Br)nn1-c1ncccc1Cl (centres unmarked) [compound 250],logP: 2.9 [pH = 10.0]
11,C#CCOc1cc(C(=O)Nc2c(C)cc(Cl)cc2C(=O)N=S2CCSC2)n(-c2ncccc2Cl)n1 (centres unmarked) [compound 200],logP: 2.5 [pH = 10.0]
12,C#CCOc1cc(C(=O)Nc2c(C)cc(Cl)cc2C(=O)N=S(CCO)CCCCC)n(-c2ncccc2Cl)n1 (centres unmarked) [compound 216],logP: 3.3 [pH = 10.0]
13,Cc1cc(I)cc(C(=O)N=S2CCCCC2)c1NC(=O)c1cc(Br)nn1-c1ncccc1Cl [compound 267],logP: 3.4 [pH = 10.0];
14,Cc1cccc(C(=O)N=S(C)c2ccc(F)cc2)c1NC(=O)c1cc(C(F)(F)F)nn1-c1ncccc1Cl (centres unmarked) [compound 215],logP: 3.2 [pH = 10.0];
15,C#CCOc1cc(C(=O)Nc2c(C)cc(I)cc2C(=O)N=S(CCO)CCCCC)n(-c2ncccc2Cl)n1 (centres unmarked) [compound 195],logP: 3.5 [pH = 10.0]
16,Cc1cccc(C(=O)N=S(C(C)C)C(C)C)c1NC(=O)c1cc(C(F)(F)F)nn1-c1ncccc1Cl [compound 214],logP: 2.7 [pH = 10.0];
17,CCS(CCCl)=NC(=O)c1cc(I)cc(C)c1NC(=O)c1cc(Br)nn1-c1ncccc1Cl (centres unmarked) [compound 268],logP: 3.2 [pH = 10.0];
18,C#CCOc1cc(C(=O)Nc2c(C)cc(Cl)cc2C(=O)N=S(C(C)C)C(C)C)n(-c2ncccc2Cl)n1 [compound 197],logP: 2.7 [pH = 10.0]
19,Cc1cccc(C(=O)N=S(C(C)C)C(C)C)c1NC(=O)c1cc(Br)nn1-c1ncccc1Cl [compound 236],logP: 2.3 [pH = 10.0];
20,CCS(C)=NC(=O)c1cc(I)cc(C)c1NC(=O)c1cc(C(F)(F)F)nn1-c1ncccc1Cl (centres unmarked) [compound 33],logP: 3.3 [pH = 10.0];
21,CCS(C)=NC(=O)c1cccc(C)c1NC(=O)c1cc(C(F)(F)F)nn1-c1ncccc1Cl (centres unmarked) [compound 210],logP: 2.5 [pH = 10.0];
22,C=CS(CC)=NC(=O)c1cccc(C)c1NC(=O)c1cc(Br)nn1-c1ncccc1Cl (centres unmarked) [compound 261],logP: 2.1 [pH = 10.0];

# Other lines, results leading:
row,logP,SMILES
1,logP: 2.7 [pH = 10.0];,CCS(C)=NC(=O)c1cc(Cl)cc(C)c1NC(=O)c1cc(Br)nn1-c1ncccc1Cl (centres unmarked) [compound 224]
2,logP: 2.9 [pH = 10.0],C#CCOc1cc(C(=O)Nc2c(C)cc(Cl)cc2C(=O)N=S(C)c2ccc(F)cc2)n(-c2ncccc2Cl)n1 (centres unmarked) [compound 201]
3,logP: 3.4 [pH = 10.0],C#CCOc1cc(C(=O)Nc2c(C)cc(I)cc2C(=O)N=S(C)c2ccc(F)cc2)n(-c2ncccc2Cl)n1 (centres unmarked) [compound 204]
4,logP: 2.9 [pH = 10.0];,CCCS(C)=NC(=O)c1cc(Cl)cc(C)c1NC(=O)c1cc(Br)nn1-c1ncccc1Cl (centres unmarked) [compound 242]
5,logP: 3.3 [pH = 10.0];,Cc1cc(I)cc(C(=O)N=S2CCSC2)c1NC(=O)c1cc(Br)nn1-c1ncccc1Cl (centres unmarked) [compound 221]
6,logP: 3.4 [pH = 10.0];,CCCCCS(CCO)=NC(=O)c1cc(Cl)cc(C)c1NC(=O)c1cc(Br)nn1-c1ncccc1Cl (centres unmarked) [compound 258]
7,logP: 2.9 [pH = 10.0];,CCS(C)=NC(=O)c1cc(Cl)cc(C)c1NC(=O)c1cc(C(F)(F)F)nn1-c1ncccc1Cl (centres unmarked) [compound 152]
8,logP: 2.9 [pH = 10.0];,Cc1cc(I)cc(C(=O)N=S2CCCC2)c1NC(=O)c1cc(Br)nn1-c1ncccc1Cl [compound 246]
9,logP: 2.7 [pH = 10.0];,Cc1cccc(C(=O)N=S(C)c2ccc(F)cc2)c1NC(=O)c1cc(Br)nn1-c1ncccc1Cl (centres unmarked) [compound 237]
10,logP: 3.2 [pH = 10.0];,Cc1cc(Cl)cc(C(=O)N=S(C)c2ccc(F)cc2)c1NC(=O)c1cc(Br)nn1-c1ncccc1Cl (centres unmarked) [compound 235]
11,logP: 3.5 [pH = 10.0];,Cc1cc(I)cc(C(=O)N=S(C)c2ccc(F)cc2)c1NC(=O)c1cc(Br)nn1-c1ncccc1Cl (centres unmarked) [compound 238]
12,logP: 3.2 [pH = 10.0];,Cc1cc(I)cc(C(=O)N=S(C)C)c1NC(=O)c1cc(C(F)(F)F)nn1-c1ncccc1Cl [compound 31]
13,logP: 2.9 [pH = 10.0],Cc1cc(Cl)cc(C(=O)N=S(C(C)C)C(C)C)c1NC(=O)c1cc(Br)nn1-c1ncccc1Cl [compound 243]
14,logP: 3.7 [pH = 10.0],CCCCCS(CCO)=NC(=O)c1cc(I)cc(C)c1NC(=O)c1cc(Br)nn1-c1ncccc1Cl (centres unmarked) [compound 252]
15,logP: 3.4 [pH = 10.0];,Cc1cc(I)cc(C(=O)N=S(C(C)C)C(C)C)c1NC(=O)c1cc(C(F)(F)F)nn1-c1ncccc1Cl [compound 120]
16,logP: 3.2 [pH = 10.0],CCCS(C)=NC(=O)c1cc(Cl)cc(C)c1NC(=O)c1cc(C(F)(F)F)nn1-c1ncccc1Cl (centres unmarked) [compound 11]
17,logP: 2.1 [pH = 10.0],Cc1cccc(C(=O)N=S2CCCC2)c1NC(=O)c1cc(Br)nn1-c1ncccc1Cl [compound 222]
18,logP: 3.6 [pH = 10.0];,Cc1cc(I)cc(C(=O)N=S2CCCCC2)c1NC(=O)c1cc(C(F)(F)F)nn1-c1ncccc1Cl [compound 71]
19,logP: 3.3 [pH = 10.0];,Cc1cc(I)cc(C(=O)N=S(C(C)C)C(C)C)c1NC(=O)c1cc(Br)nn1-c1ncccc1Cl [compound 257]
20,logP: 3.1 [pH = 10.0];,CCS(C)=NC(=O)c1cc(I)cc(C)c1NC(=O)c1cc(Br)nn1-c1ncccc1Cl (centres unmarked) [compound 223]
21,logP: 2.8 [pH = 10.0];,CCCS(C)=NC(=O)c1cccc(C)c1NC(=O)c1cc(C(F)(F)F)nn1-c1ncccc1Cl (centres unmarked) [compound 211]
22,logP: 1.9 [pH = 10.0];,Cc1cccc(C(=O)N=S(C)C)c1NC(=O)c1cc(Br)nn1-c1ncccc1Cl [compound 274]
23,logP: 2.3 [pH = 10.0];,CCCS(C)=NC(=O)c1cccc(C)c1NC(=O)c1cc(Br)nn1-c1ncccc1Cl (centres unmarked) [compound 263]
24,logP: 3.9 [pH = 10.0];,CCCCCS(CCO)=NC(=O)c1cc(I)cc(C)c1NC(=O)c1cc(C(F)(F)F)nn1-c1ncccc1Cl (centres unmarked) [compound 113]
25,logP: 2.2 [pH = 10.0];,Cc1cccc(C(=O)N=S(C)C)c1NC(=O)c1cc(C(F)(F)F)nn1-c1ncccc1Cl [compound 199]
26,logP: 3.6 [pH = 10.0];,CCCS(C)=NC(=O)c1cc(I)cc(C)c1NC(=O)c1cc(C(F)(F)F)nn1-c1ncccc1Cl (centres unmarked) [compound 93]

# System: Tobacco Budworm (Heliothis virescens)
# Experiment: Tobacco budworm (Heliothis virescens) I, foliar spray on cotton plants
# Type: in vivo
# Conditions: 800 ppm, 4 days after treatment
# Description: B.3 Tobacco Budworm (Heliothis virescens) I
# The active compounds are formulated in cyclohexanone as a 10,000 ppm solution supplied in tubes. The tubes are inserted into an automated electrostatic sprayer equipped with an atomizing nozzle and they serve as stock solutions for which lower dilutions are made in 50% acetone:50% water (v/v). A nonionic surfactant (Kinetic®) is included in the solution at a volume of 0.01% (v/v).
# Cotton plants are grown 2 plants to a pot and selected for treatment at the cotyledon stage. Test solutions are sprayed onto the foliage by an automated electrostatic plant sprayer equipped with an atomizing spray nozzle. The plants are dried in the sprayer fume hood and then removed from the sprayer. Each pot is placed into perforated plastic bags with a zip closure. About 10 to 11 budworm larvae are placed into the bag and the bags zipped closed. Test plants are maintained in a growth room at about 250C and about 20-40% relative humidity for 4 days, avoiding direct exposure to fluorescent light (24 hour photoperiod) to prevent trapping of heat inside the bags. Mortality and reduced feeding are assessed 4 days after treatment, compared to untreated control plants.
row,SMILES,mortality in comparison with untreated controls
1,CCCS(CCC)=NC(=O)c1cc(Cl)cc(Cl)c1N [S.22],over 75%

# Reference: patent US9282741B2, “Aniline type compounds” (BASF SE, priority 2011, dated 2016)
